Source: EP0804408B1, “NOVEL 4-SUBSTITUTED 2,6-DI-TERT-BUTYLPHENOL COMPOUNDS, PHARMACEUTICAL COMPOSITIONS CONTAINING SAME AND PREPARATION METHOD THEREFOR” (priority 1994, dated 1996)
Marks after values point to notes of the source that are not given here.

Experiments:
cellules MT4 = assay: Cytotoxicity control on MT4 cells (uncontaminated AVF1 samples, diluted and ultracentrifuged); type: cell-based, humaines; conditions: non contaminé, dilué et centrifugé, inoculated at dilution 1/4, 10 days culture
Protocol: • Contrôles négatifs : • . Les cellules utilisées pour le titrage, non infectées (culture témoin). • . les trois concentrations de AVF1 utilisées dans l'étude, diluées en tampon NTE et ultracentrifugées. Ces échantillons (contrôles négatifs) ont été utilisés pour vérifier l'absence de toxicité due à des traces résiduelles de AVF1, sur les cellules MT4. • Contrôles positifs : • . Le VIH-1 dilué en milieu de culture à la dilution réalisée pour l'étude, immédiatement aliquoté et stocké à -80°C (contrôle positif). • . Le VIH-1 dilué en milieu de culture à la dilution réalisée pour l'étude, puis dilué en tampon NTE, ultracentrifugé, filtré sur un filtre de 0,45 µm, aliquoté, stocké à -80°C et titré ultérieurement (contrôle de centrifugation). • . Le VIH-1 dilué en milieu de culture à la dilution réalisée pour l'étude, laissé 10 minutes à température ambiante, puis dilué en tampon NTE, ultracentrifugé, filtré sur un filtre de 0,45 µm, aliquoté, stocké à -80°C et titré ultérieurement (contrôle expérimental).
Le contrôle de toxicité a été réalisé dans des conditions identiques à celles décrites pour la méthode de titrage, mais en inoculant les cellules MT4 avec les échantillons non contaminés par le VIH-1 et décrits précédemment (contrôle négatif).
Le critère de non toxicité du produit est établi a été établi en comparant l'aspect morphologique et la viabilité des cellules MT4 inoculées avec du milieu de culture (culture témoin) ou avec les échantillons non contaminés (contrôles négatifs) après 10 jours de culture.

[1] = system: NO-synthase inductible (iNOS); assay: iNOS induction test: nitrites in RAW264.7 supernatants by Griess reaction after nitrate reduction; type: cell-based, murins
Excerpt: Cette hypothèse a été contrôlée en dosant les nitrites dans des surnageants de culture de macrophages murins de lignées activées en présence de AVF1. Les nitrites ont été dosés par la réaction de Griess après réduction de tous le nitrates grâce à la nitrate réductase de Pseudomonas oleoverans (Granger et al., J. Immunol., 1991, 146, 1294-1302). La spécificité de la réaction a été prouvée par l'emploi d'un inhibiteur spécifique de la synthèse du monoxyde d'azote, la N^G-monométhyl-L-arginine (L-NMMA).
Le test d'induction iNOS consiste à ensemencer les macrophages RAW264.7 dans des plaques à 24 puits à raison de 1 x 10^6 sous 1,6 ml. Après 24 heures de culture permettant d'obtenir un tapis cellulaire complet, AVF1, dilué de raison 10 dans des des doses ne donnant pas de toxicité cellulaire (de 10^-6 à 10^-8 %), est ajouté dans 100 µl par cupule soit sur des macrophages sans activateur, avec ou sans l'inhibiteur de iNOS (action directe du produit sur les macrophages) soit en présence des inducteurs, avec ou sans inhibiteur (action du produit sur des macrophages activés).
Après 24 heures de culture, les surnageants sont prélevés, centrifugés 10 minutes à 100 g à température ambiantes pour éliminer les éventuels débris cellulaires puis utilisés pour le dosage des nitrites.
Deux volumes des surnageants clarifiés sont réduits en présence d'un volume d'une suspension de Pseudomonas oleovorans à 100 mg/ml et un volume de D-MEM sans rouge de phénol. Après une incubation de 90 minutes à 37°C sans agitation, les mélanges sont centrifugés 5 minutes à 4 000 g pour éliminer les bactéries et dilués au 1/5 et au 1/10 en eau distillée stérile.
100 µl des échantillons réduits et dilués sont distribués dans des séries de 2 puits dans une plaque ELISA (maxicorp, Nunc.). 200 µl du réactif de Griess (mélange ex-temporané volume à volume des solutions de sulfamide à 1,5 g/100 ml de HCl 1,2 N (87,1 mM) - réactif A - et de naphtylènediamine à 0,15 g/100 ml d'eau stérile (5,78 mM) - réactif B -) sont ajoutés.
Cent autres µl d'échantillon servant de blanc de DO sont distribués et mélangés à 200 µl d'un mélange ex-temporané volume à volume d'eau distillée et du réactif colorimétrique A.
Après 30 minutes à température ambiante à l'obscurité, la densité optique (DO) des échantillons est lue à 540 nm au lecteur de plaque pour ELISA.
• Les contrôles du système d'induction iNOS sont composés de : • . Témoin cellules consistant en des macrophages ne recevant que du milieu de culture. • . Témoin d'induction consistant en des macrophages traités par 100 µl de lipopolysaccharide (LPS à 4 µg/ml, Difco) et par 100 µl d'interféron-γ recombinant (IFN-γ à 1 µU/ml, Boerhinger-Mannheim) afin d'activer la iNOS (Schmidt et al., Mol. Pharmacol., 1992, 41, 614-624). Les solutions mères de LPS et de IFN-γont été conservées respectivement à +4°C et à -20°C avant utilisation. • . Témoin d'inhibition spécifique pour prouver que les nitrites dosés proviennent de l'activation de la iNOS. Il consiste à incorporer à la culture un inhibiteur spécifique, la L-NMMA (N^G-monométhyl-L-arginine, Calbiochem) (Hibbs et al., Science, 1987, 235, 473-476) à des concentrations de raison 10 allant de 3 à 300 µM. Cette solution a été conservée sous parties aliquotes à -20°C avant utilisation. • Les contrôles de la réaction de Greiss sont composés de : • . Une solution de nitrate de sodium qui permet de contrôler l'activité nitrate-réductase des bactéries. • . Une gamme étalon de nitrite de sodium qui permet de doser les nitrites dans les échantillons. • Le blanc de DO de la gamme étalon contenant 100 µl d'eau distillée et 200 µl du mélange des réactifs A et B.

[2] = AVF1 1 x 10^-6 % (10 nM), IFNγ + LPS + L-NMMA (3 µM)
[3] = AVF1 1 x 10^-6 % (10 nM), IFNγ + LPS + L-NMMA (30 µM)
[4] = AVF1 1 x 10^-6 % (10 nM), IFNγ + LPS + L-NMMA (300 µM)
[5] = AVF1 1 x 10^-7 % (1 nM), IFNγ + LPS + L-NMMA (30 µM)
[6] = AVF1 1 x 10^-7 % (1 nM), IFNγ + LPS + L-NMMA (300 µM)
[7] = AVF1 1 x 10^-8 % (0,1 nM), IFNγ + LPS + L-NMMA (3 µM)
[8] = AVF1 1 x 10^-8 % (0,1 nM), IFNγ + LPS + L-NMMA (300 µM)

## CC(C)(C)c1cc(C(=O)OCCOCCOCCOCCOCCOCCOCCOCCO)cc(C(C)(C)C)c1O [AVF1, 3,5-di-t-butyl-4-hydroxybenzoate d'octaoxyéthylèneglycol]
Cellules MT4; AVF1 dilué à 0,5%
  Remarques (toxicité sur cellules MT4): Non toxique (échantillon inoculé à la dilution 1/4)
Cellules MT4; AVF1 dilué à 1%
  Remarques (toxicité sur cellules MT4): Non toxique (échantillon inoculé à la dilution 1/4)
Cellules MT4; AVF1 dilué à 2%
  Remarques (toxicité sur cellules MT4): Non toxique (échantillon inoculé à la dilution 1/4)
[1]; AVF1 1 x 10^-6 % (10 nM), IFNγ + LPS
  Concentration moyenne en nitrites en µM sur 2 échantillons: 20,9 µM
[1]; [2]
  Concentration moyenne en nitrites en µM sur 2 échantillons: 5,3 µM
  Pourcentage d'inhibition de la production de nitrite: 74%
[1]; [3]
  Concentration moyenne en nitrites en µM sur 2 échantillons: 6,3 µM
  Pourcentage d'inhibition de la production de nitrite: 70%
[1]; [4]
  Concentration moyenne en nitrites en µM sur 2 échantillons: 4,8 µM
  Pourcentage d'inhibition de la production de nitrite: 77%
[1]; AVF1 1 x 10^-6 % (10 nM), cells: Milieu (no activator)
  Concentration moyenne en nitrites en µM sur 2 échantillons: 5,0* µM
[1]; AVF1 1 x 10^-7 % (1 nM), IFNγ + LPS
  Concentration moyenne en nitrites en µM sur 2 échantillons: 19,5 µM
[1]; AVF1 1 x 10^-7 % (1 nM), IFNγ + LPS + L-NMMA (3 µM)
  Concentration moyenne en nitrites en µM sur 2 échantillons: 5,1 µM
[1]; [5]
  Concentration moyenne en nitrites en µM sur 2 échantillons: 4,9 µM
  Pourcentage d'inhibition de la production de nitrite: 76%
[1]; [6]
  Concentration moyenne en nitrites en µM sur 2 échantillons: 5,8 µM
  Pourcentage d'inhibition de la production de nitrite: 72%
[1]; AVF1 1 x 10^-7 % (1 nM), cells: Milieu (no activator)
  Concentration moyenne en nitrites en µM sur 2 échantillons: 4,8* µM
[1]; AVF1 1 x 10^-8 % (0,1 nM), IFNγ + LPS
  Concentration moyenne en nitrites en µM sur 2 échantillons: 21,6 µM
[1]; [7]
  Concentration moyenne en nitrites en µM sur 2 échantillons: 5,0 µM
  Pourcentage d'inhibition de la production de nitrite: 76%
[1]; AVF1 1 x 10^-8 % (0,1 nM), IFNγ + LPS + L-NMMA (30 µM)
  Concentration moyenne en nitrites en µM sur 2 échantillons: 5,2 µM
[1]; [8]
  Concentration moyenne en nitrites en µM sur 2 échantillons: 5,5 µM
  Pourcentage d'inhibition de la production de nitrite: 74%
[1]; AVF1 1 x 10^-8 % (0,1 nM), cells: Milieu (no activator)
  Concentration moyenne en nitrites en µM sur 2 échantillons: 5,6* µM
[1]; AVF1 from 10^-6 % downwards, non-activated macrophages, nitrites in supernatants
  induction de monoxyde d'azote (NO) dans les macrophages: n'induit pas de monoxyde d'azote (NO)
[1]; Mus musculus, RAW264.7, AVF1 1 x 10^-6 % (10 nM), IFNγ + LPS, read-out: Pourcentage d'inhibition de la production de nitrite
  inhibition at 0.01 µM: 0%
[1]; Mus musculus, RAW264.7, AVF1 1 x 10^-7 % (1 nM), IFNγ + LPS, read-out: Pourcentage d'inhibition de la production de nitrite
  inhibition at 0.001 µM: 6%
[1]; macrophages activated by LPS + IFN-γ
  action sur le niveau de production de NO: n'a aucune action sur le niveau de production
